Structures are written as SMILES.

The test system of this test is Leishmania (L. major). Kind of test: Leishmania protozoa proliferation inhibition assay. It is filed as cell-based. The following applies: for OD level (number of viable Leishmania protozoa): 48 hours at 27° C., absorbance 450 nm minus 630 nm; for IC50: calculated from the graphs of FIGS. 1 to 4 (concentration vs number of viable leishmania protozoa), read-out: Concentration inhibiting 50% leishmania proliferation. As to the method: After dissolving each of the obtained compounds in dimethylsulfoxide (hereinafter referred to as DMSO), the resultant was diluted by 9 steps in Medium 199 medium (Invitrogen) to the indicated concentration, filtrated with a membrane filter, and each of the filtration was made as a sample solution. […] By keeping the solution at 27° C., incubation was performed under 5% CO2, for 48 hours. Then, TetraColor ONE (tradename: Seikagaku Corporation) reagent was added thereto and further incubated for 6 hours. Then, the absorbance at a wavelength of 450 nm was measured for the 96-well microtiter plate with a microplate reader, the wave length of 630 nm was made as reference wave length, and in order to exclude background effect, the absorbance at 630 nm was excluded from the one at 450 nm, and the OD level was calculated as a level to indicate the number of viable Leishmania protozoa. The assay was performed by three wells at a time for each concentration of each sample, and the mean level was made as OD level. […] Amphotericin B was used as positive control. […] Inhibiting effect against […] protozoa for each sample was similar or more compared with that of Amtephotericin B.

The mark [1] stands for this setting: Table 2, sample concentration 0.0001 mg/ml.
Setting [2] is: Table 2, sample concentration 0.0007 mg/ml.
Setting [3] is: Table 2, sample concentration 0.002 mg/ml.
Where [4] appears, read: Table 2, sample concentration 0.008 mg/ml.
[5] abbreviates: Table 2, sample concentration 0.025 mg/ml.
Where [6] appears, read: Table 2, sample concentration 0.084 mg/ml.
[7] abbreviates: Table 2, sample concentration 0.279 mg/ml.
The mark [8] stands for this setting: Table 2, sample concentration 0.93 mg/ml.
Setting [9] is: Table 2, sample concentration 3.1 mg/ml.
[10] abbreviates: Table 2, sample concentration 2E−04 mg/ml.

In the case of `C[C@@H]1[C@H](O)[C@@H](C)/C=C/C=C/C=C/C=C/C=C/C=C/C=C/[C@H](O[C@@H]2O[C@H](C)[C@@H](O)[C@H](N)[C@@H]2O)C[C@@H]2O[C@](O)(C[C@@H](O)C[C@@H](O)[C@H](O)CC[C@@H](O)C[C@@H](O)CC(=O)O[C@H]1C)C[C@H](O)[C@H]2C(=O)O` [Amphotericin B, reference compound], the IC50 is 140 nM. Moreover, where the note is “Table 1, positive control line, concentration 0.001 mg/ml”, the “OD level (number of viable Leishmania protozoa)” value (shortened to “OD level”) is 0.428. Where the note is “Table 1, positive control line, concentration 0.0121094 mg/ml”, the “OD level” value turned out to be 0.394. In addition, the “OD level” value (Table 1, positive control line, concentration 0.0242188 mg/ml) turned out to be 0.373. Also, the “OD level” value (Table 1, positive control line, concentration 0.0484375 mg/ml) stood at 0.352. Further, for the setting “Table 1, positive control line, concentration 0.096875 mg/ml”, the “OD level” value is reported as 0.349. The “OD level” value (Table 1, positive control line, concentration 0.19375 mg/ml) is listed as 0.044. Further, the “OD level” value (Table 1, positive control line, concentration 0.3875 mg/ml) turned out to be 0.036. The “OD level” value (Table 1, positive control line, concentration 0.775 mg/ml) turned out to be 0.036. Further, where the note is “Table 1, positive control line, concentration 1.55 mg/ml”, the “OD level” value was 0.036. Besides, the “OD level” value (Table 1, positive control line, concentration 3.1 mg/ml) is reported as 0.034. Besides, for the setting “Table 3, sample concentration 0.001 mg/ml”, the “OD level” value is given as 0.351. Also, the “OD level” value (Table 3, sample concentration 0.002165 mg/ml) came to 0.338. The “OD level” value (Table 3, sample concentration 0.0072171 mg/ml) was found to be 0.325. The “OD level” value (Table 3, sample concentration 0.02406 mg/ml) turned out to be 0.331. Also, for the setting “Table 3, sample concentration 0.08019 mg/ml”, the “OD level” value was 0.311. Further, under “Table 3, sample concentration 0.2673 mg/ml”, the “OD level” value came out at 0.273. Also, the “OD level” value (Table 3, sample concentration 0.891 mg/ml) was found to be 0.051. Besides, the “OD level” value (Table 3, sample concentration 2.97 mg/ml) was found to be 0.029. For the setting “Table 3, sample concentration 9.9 mg/ml”, the “OD level” value is on record as 0.029. Also, where the note is “Table 3, sample concentration 33 mg/ml”, the “OD level” value was found to be 0.030.
For the compound `CN1/C(=c2\s/c(=C\c3cccc[n+]3C)n(Cc3ccccc3)c2=O)Sc2ccccc21.Cc1ccc(S(=O)(=O)[O-])cc1` [I (a), 2-[{5-(3-methyl-2(3H)-benzothiazolylidene)-4-oxo-3-benzyl-2-thiazolidinylidene}methyl]-1-methylpyridinium=p-toluenesulfonate], the IC50 was 410 nM. Besides, under setting [1], the “OD level” value is 0.356. The “OD level” value under setting [2] is reported as 0.361. In addition, the “OD level” value under setting [3] was 0.383. Under setting [4], the “OD level” value was 0.469. Moreover, the “OD level” value under setting [5] came out at 0.172. Besides, the “OD level” value under setting [6] is given as 0.088. Under setting [7], the “OD level” value worked out at 0.043. The “OD level” value under setting [8] was found to be 0.034. Further, the “OD level” value under setting [9] turned out to be 0.035. Also, the “OD level” value under setting [10] is given as 0.356.
In the case of `CCn1c(=O)/c(=C2\Sc3ccccc3N2C)s/c1=C\c1cccc[n+]1Cc1ccc(C(=O)O)cc1.[Br-]` [I (d), 1-(p-carboxyphenyl)methyl-2-[3-ethyl-{5-(3-methyl-2(3H)-benzothiazolylidene)-4-oxo-2-thiazolidinylidene}methyl]pyridinium=bromide], the IC50 was 5300 nM. Besides, the “OD level” value under setting [1] worked out at 0.360. Also, the “OD level” value under setting [2] came to 0.359. In addition, under setting [3], the “OD level” value is recorded as 0.348. Also, the “OD level” value under setting [4] was determined as 0.364. Moreover, the “OD level” value under setting [5] is recorded as 0.384. Under setting [6], the “OD level” value is 0.346. Moreover, the “OD level” value under setting [7] worked out at 0.360. For the same compound, the “OD level” value under setting [8] worked out at 0.333. The “OD level” value under setting [9] amounted to 0.242. Besides, the “OD level” value under setting [10] amounted to 0.356.
Turning to `C=CCn1c(=Cc2cccc[n+]2C)sc(=C2Sc3ccccc3N2C)c1=O.Cc1ccc(S(=O)(=O)[O-])cc1` [IV (a), 2-[{5-(3-methyl-2(3H)-benzothiazolylidene)-4-oxo-3-(2-propenyl)-2-thiazolidinylidene}methyl]-1-methylpyridinium=p-toluenesulfonate], the IC50 is 320 nM. In addition, the “OD level” value (Table 1, sample concentration 0.001 mg/ml) was 0.470. Besides, where the note is “Table 1, sample concentration 0.016384 mg/ml”, the “OD level” value is 0.541. For the same compound, the “OD level” value (Table 1, sample concentration 0.04096 mg/ml) is recorded as 0.488. Also, for the setting “Table 1, sample concentration 0.1024 mg/ml”, the “OD level” value turned out to be 0.385. In addition, for the setting “Table 1, sample concentration 0.256 mg/ml”, the “OD level” value amounted to 0.157. The “OD level” value (Table 1, sample concentration 0.64 mg/ml) is on record as 0.095. Also, where the note is “Table 1, sample concentration 1.6 mg/ml”, the “OD level” value is 0.047. The “OD level” value (Table 1, sample concentration 4 mg/ml) turned out to be 0.035. For the same compound, the “OD level” value (Table 1, sample concentration 10 mg/ml) came to 0.031. For the same compound, under “Table 1, sample concentration 25 mg/ml, mean of three wells”, the “OD level” value is reported as 0.032.
Regarding `CCn1c(=Cc2cc[n+](C)c3ccccc23)sc(=C2Sc3ccccc3N2C)c1=O.Cc1ccc(S(=O)(=O)[O-])cc1` [IV (b), 4-[{5-(3-methyl-2(3H)-benzothiazolylidene)-4-oxo-3-ethyl-2-thiazolidinylidene}methyl]-1-methylquinolium=p-toluene sulfonate], the “OD level” value under setting [1] was found to be 0.361; the “OD level” value under setting [2] was 0.354; the “OD level” value under setting [3] is listed as 0.362; the “OD level” value under setting [4] is listed as 0.380; the “OD level” value under setting [5] turned out to be 0.409; the “OD level” value under setting [6] came out at 0.211. In addition, the “OD level” value under setting [7] is given as 0.102, the “OD level” value under setting [8] is reported as 0.044, the “OD level” value under setting [9] is on record as 0.037 and the “OD level” value under setting [10] was 0.351.

The record behind these values is patent US20060252800A1, “Anti-leishmania agent” (priority 2003, published 2006).
